Measured values reported in PMC5303260, “Efficacy, safety and pharmacokinetics of simeprevir and TMC647055/ritonavir with or without ribavirin and JNJ-56914845 in HCV genotype 1 infection” (BMC Gastroenterology, 2017).
Where two headings read alike, the source gives them in different places.

Assays:
[1] = cited from earlier work; for change in plasma concentrations on co-administration with JNJ-56914845: healthy volunteers, not considered clinically relevant
[2] = tested on: HCV replicon with NS5B NNI-1 pocket polymorphisms; experiment: In vitro susceptibility of site-directed mutant replicons (baseline NS5B polymorphisms); format: cell-based, hepatitis C virus; conditions: NS5B polymorphisms observed at baseline (positions 37, 392, 424, 425, 494, 499) with site-directed mutagenesis data
Source text: NS5B polymorphisms were detected at baseline at the non-nucleoside inhibitor (NNI)-1 binding pocket positions 37, 392, 424, 425, 494 and/or 499 across all panels.

HCV GT1, 3, 4, 5 and 6 = tested on: HCV GT1, 3, 4, 5 and 6; parameters: method as in PMID 24144360; conditions: cited from earlier work
[3] = parameters: species or system human; conditions: in vivo
Experimental: Plasma pharmacokinetic samples for simeprevir, TMC647055, ritonavir and JNJ-56914845 were collected over 24 h (pre-dose, 1, 2, 3, 4, 5, 6, 8, 10, 12 and 24 h post-dose) at Week 4 from all patients and assayed using validated liquid chromatography-tandem mass spectrometry methods with lower limits of quantification for simeprevir, TMC647055, ritonavir and JNJ-56914845 of 5.0, 5.0, 2.0 and 1.0 ng/mL, respectively (data on file).
No formal sample size calculations were performed as this was a proof-of-concept study. For each efficacy endpoint, the proportion of patients was summarised descriptively together with a 95% confidence interval by treatment group and population. The change in log10 HCV RNA from baseline at all time points was calculated using descriptive statistics. Pharmacokinetic parameters were calculated using non-compartmental analysis (Phoenix WinNonlin® 6.2.1). All safety and tolerability data were summarised descriptively.

HCV NS5B = experiment: Population-based sequencing at time of failure, NS5B region; parameters: species or system hepatitis C virus; conditions: patients with virologic failure
P-glycoprotein = conditions: cited from earlier work
cytochrome P450 (CYP) 3A = conditions: cited from earlier work
[4] = tested on: organic anion transporting polypeptide (OATP) 1B1/3; conditions: cited from earlier work
HCV NS3/4A = experiment: Population-based sequencing at time of failure, NS3/4A region; parameters: species or system hepatitis C virus
HCV NS5A [5] = conditions: all patients with virologic failure in Panel 4
HCV GT1, 4, 5 and 6a/6b = tested on: HCV GT1, 4, 5 and 6a/6b; parameters: method as in PMID 24107072, PMID 24126581; conditions: cited from earlier work
HCV NS5A [6] = tested on: HCV NS5A; parameters: method as in PMID 24126581; conditions: L31M and Y93C (in combination with M28V), GT1a; cited from earlier work
[7] = tested on: breast cancer resistance protein; conditions: cited from earlier work

In the case of `COc1ccc2c(c1)C=C1Cn3c-2c(C2CCCCC2)c2ccc(cc23)C(=O)NS(=O)(=O)N(C)CCOCCN(C)C1=O` [TMC647055], the “change in plasma concentrations on co-administration with JNJ-56914845” value [1] is given as “small increases”, the “fold change in 50 % effective concentration compared to wild-type replicon” value [2] is given as under 2 and the “in vitro antiviral activity” value (HCV GT1, 3, 4, 5 and 6) is given as “in vitro antiviral activity against HCV GT1, 3, 4, 5 and 6”. The “differences in pharmacokinetics based on ribavirin use” value (from here on “differences in pharmacokinetics based”) [3] was “No differences”, the “increase in exposure with dose” value [3] was “more than dose-proportional increase” and the “resistance-associated variants (RAVs) observed at failure” value (HCV NS5B) was “NS5B position 495 (mainly P495L)”.
For `COc1ccc2c(O[C@@H]3C[C@H]4C(=O)N[C@]5(C(=O)NS(=O)(=O)C6CC6)C[C@H]5/C=C\CCCCN(C)C(=O)[C@@H]4C3)cc(-c3nc(C(C)C)cs3)nc2c1C` [simeprevir], the “change in plasma concentrations on co-administration with JNJ-56914845” value [1] is given as “small increases”, the P-glycoprotein inhibition (P-glycoprotein) is given as “inhibits” and the “CYP3A substrate / inhibitor status” value (cytochrome P450 (CYP) 3A) is given as “substrate and mild inhibitor (intestinal only)”. The OATP1B1/3 inhibition [4] was “inhibits”, the “differences in pharmacokinetics based” value [3] was “No differences” and the “exposure compared with historical data for simeprevir 150 mg once daily” value [3] was “within the range observed in historical data”. For the same compound, the “emerging NS3 mutations at time of failure” value (HCV NS3/4A; GT1a-infected patients with virologic failure (R155K alone or with Q80R; R155S)) was “NS3 position 155” and the “emerging NS3 mutation at time of failure” value (HCV NS3/4A; most GT1b-infected patients with virologic failure) was “NS3 position 168”.
For `COC(=O)N[C@H](C(=O)N1CCC[C@H]1c1ncc(-c2ccc(-c3ccc(-c4cnc([C@@H]5CC6(CN5C(=O)[C@@H](NC(=O)OC)C(C)C)OCCO6)[nH]4)cc3)cc2)[nH]1)C(C)C` [JNJ-56914845], the “increase in exposure (AUC0–24h) on co-administration of simeprevir” value ([1]; human, in vivo) is given as 2.6 fold, the P-glycoprotein inhibition (P-glycoprotein) is given as “inhibits” and the P-glycoprotein substrate status (P-glycoprotein) is given as “substrate”. The “emerging RAVs at time of failure” value (HCV NS5A [5]) was “NS5A positions 30 and/or 31”, the CYP3A substrate status (cytochrome P450 (CYP) 3A) was “substrate” and the OATP1B1/3 inhibition ([4]; in vitro, ref data on file) was “inhibits”. The “in vitro antiviral activity” value (HCV GT1, 4, 5 and 6a/6b) was “in vitro antiviral activity against HCV GT1, 4, 5 and 6a/6b”, the “baseline NS5A polymorphisms and in vitro resistance” value (HCV NS5A [6]) was “associated with in vitro resistance” and the “breast cancer resistance protein inhibition” value [7] was “inhibits”.
With `CC(C)c1nc(CN(C)C(=O)N[C@H](C(=O)N[C@@H](Cc2ccccc2)C[C@H](O)[C@H](Cc2ccccc2)NC(=O)OCc2cncs2)C(C)C)cs1` [ritonavir] the “differences in pharmacokinetics based” value [3] was “No differences”.
